Assays:
[1] = sublingual treatment, concentration-dependent; non-patent document 3; cited from earlier work
[2] = tested on: thoracic aorta isolated from a rat; assay: Magnus method: vasodilatory potency on aortic ring, relaxation of Norepinephrine 0.3 μM-induced contraction; details: L-citrulline 1000 μM, single addition; vasoconstriction induced by 0.3 μM Norepinephrine

Compound: COc1cc(CNC(=O)CCCCC=CC(C)C)ccc1O [capsaicin, 8-methyl-N-vanillyl-6-nonenamide]
- concentration of capsaicin solution producing a feeling of strong pain [1]: not less than 75 μM

Compound: NC(=O)NCCC[C@H](N)C(=O)O [L-citrulline]
- vascular relaxation rate (%) [2]: 15-20%
